We go through 3 molecules from US20120130699A1, “Method of molecular design and synthesis of therapeutic and preventive drugs” (priority 2010, published 2012).

A short description of series [1]: comparative characteristics: ED50 and therapeutic index. As to conditions: LD50 in rats / ED50.
For series [2] the following is noted: rat, in vivo.
The conditions of series [3]: human, in vivo; cited from earlier work.
The test system of a further series is cervical cancer. As to conditions: treatment of cervical cancer; cited from earlier work.

Consider `CC(=O)O[C@@]12CO[C@@H]1C[C@H](O)[C@@]1(C)C(=O)[C@H](O)C3=C(C)[C@@H](OC(=O)[C@H](O)[C@@H](NC(=O)OC(C)(C)C)c4ccccc4)C[C@@](O)([C@@H](OC(=O)c4ccccc4)[C@H]21)C3(C)C` [Taxotere], for which the “Therapeutic Index” value in series [1] worked out at 3.42. In series [2], the “Relative Therapeutic Index” value was determined as 1. `CN1CC[C@]23c4c5ccc(O)c4O[C@H]2[C@@H](O)C=C[C@H]3[C@H]1C5` [morphine]: the average effectiveness in series [3] is recorded as 75%. In the case of alpha-interferon, the average effectiveness entry with cervical cancer was “about 15%”.
